Consider 4 compounds from patent US10857163B1, “Compositions that preferentially potentiate subtypes of GABAA receptors and methods of use thereof” (priority 2019, dated 2020).

Structures are written as SMILES.

The target in experiment [1] is picrotoxin binding site of GABAA receptors. The note with it: membranes isolated from the cortices of rat brains; Table 1 of WO 2016/061527; read-out: IC50 in the TBPS displacement assay; cited from earlier work.
For experiment [2], the target named is T1, α1β2γ2 GABAA receptor (Homo sapiens, UniProt P14867+P18507+P47870).
T1 construct: expressed in transfected cells
T1 sequence (P14867 28-456): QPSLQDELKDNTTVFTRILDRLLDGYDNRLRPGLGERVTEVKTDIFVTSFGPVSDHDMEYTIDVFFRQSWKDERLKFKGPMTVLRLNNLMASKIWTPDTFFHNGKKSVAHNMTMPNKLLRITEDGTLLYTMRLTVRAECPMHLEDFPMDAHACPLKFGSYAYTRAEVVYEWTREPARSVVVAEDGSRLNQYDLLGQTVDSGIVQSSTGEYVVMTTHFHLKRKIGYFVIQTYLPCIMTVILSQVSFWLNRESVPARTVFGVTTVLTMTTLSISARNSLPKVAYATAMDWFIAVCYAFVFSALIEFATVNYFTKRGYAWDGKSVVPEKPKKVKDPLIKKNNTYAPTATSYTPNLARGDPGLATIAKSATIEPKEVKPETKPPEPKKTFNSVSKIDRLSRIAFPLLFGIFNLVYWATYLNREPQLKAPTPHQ
T1 sequence (P47870 25-512 limits assumed): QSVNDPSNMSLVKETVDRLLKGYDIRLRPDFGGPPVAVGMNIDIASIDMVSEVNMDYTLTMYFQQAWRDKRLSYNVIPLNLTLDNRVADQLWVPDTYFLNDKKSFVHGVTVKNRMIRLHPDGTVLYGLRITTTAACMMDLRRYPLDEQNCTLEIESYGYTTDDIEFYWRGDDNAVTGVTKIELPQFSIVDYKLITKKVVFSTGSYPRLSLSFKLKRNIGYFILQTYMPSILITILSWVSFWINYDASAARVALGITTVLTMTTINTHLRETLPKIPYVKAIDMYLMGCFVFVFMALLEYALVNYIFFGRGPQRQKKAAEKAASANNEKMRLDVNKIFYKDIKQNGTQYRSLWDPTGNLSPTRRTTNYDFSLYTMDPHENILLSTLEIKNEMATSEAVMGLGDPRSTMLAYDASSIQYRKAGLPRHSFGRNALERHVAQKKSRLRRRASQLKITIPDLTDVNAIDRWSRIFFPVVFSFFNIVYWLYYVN
T1 sequence (P18507 40-475): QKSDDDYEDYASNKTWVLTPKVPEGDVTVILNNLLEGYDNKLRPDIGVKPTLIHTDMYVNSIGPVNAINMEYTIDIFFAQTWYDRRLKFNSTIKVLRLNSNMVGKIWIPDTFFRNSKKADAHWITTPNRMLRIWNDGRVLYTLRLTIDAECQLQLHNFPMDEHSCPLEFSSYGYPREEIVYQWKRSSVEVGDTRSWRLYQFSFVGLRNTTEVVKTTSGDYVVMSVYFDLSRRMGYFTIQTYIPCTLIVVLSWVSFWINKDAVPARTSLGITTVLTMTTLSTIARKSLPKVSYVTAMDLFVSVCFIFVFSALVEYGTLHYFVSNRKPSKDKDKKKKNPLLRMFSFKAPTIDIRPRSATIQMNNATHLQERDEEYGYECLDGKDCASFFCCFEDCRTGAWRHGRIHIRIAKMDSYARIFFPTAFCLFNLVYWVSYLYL
The note with it: 10 μM neurosteroid, GABA 2 μM (EC20), LTK cells; Table 2 of WO 2016/061527; cited from earlier work.

The target of experiment [3] is T2, α4β3δ GABAA receptor (Homo sapiens, UniProt O14764+P28472+P48169). Set-up: expressed in transfected cells; host or cells: CHO cells (transient). The following applies: 10 μM neurosteroid, GABA 2 μM (EC20), CHO cells; Table 2 of WO 2016/061527; cited from earlier work.
T2 sequence (P48169 36-554): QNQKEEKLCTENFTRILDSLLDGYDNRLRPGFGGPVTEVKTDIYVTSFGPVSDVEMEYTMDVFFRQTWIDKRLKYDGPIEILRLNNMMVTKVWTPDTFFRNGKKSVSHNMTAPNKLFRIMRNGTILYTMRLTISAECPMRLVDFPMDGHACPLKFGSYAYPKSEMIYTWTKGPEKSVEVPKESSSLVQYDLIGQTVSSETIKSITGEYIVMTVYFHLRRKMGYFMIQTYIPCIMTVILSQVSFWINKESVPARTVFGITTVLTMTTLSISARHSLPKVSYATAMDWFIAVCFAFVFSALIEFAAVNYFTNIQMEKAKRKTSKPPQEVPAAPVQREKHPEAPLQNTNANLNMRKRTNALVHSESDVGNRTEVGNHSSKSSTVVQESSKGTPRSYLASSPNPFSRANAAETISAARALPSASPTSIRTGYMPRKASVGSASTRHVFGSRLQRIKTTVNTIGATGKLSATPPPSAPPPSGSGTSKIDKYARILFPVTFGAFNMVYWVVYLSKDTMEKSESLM
T2 sequence (P28472 26-473): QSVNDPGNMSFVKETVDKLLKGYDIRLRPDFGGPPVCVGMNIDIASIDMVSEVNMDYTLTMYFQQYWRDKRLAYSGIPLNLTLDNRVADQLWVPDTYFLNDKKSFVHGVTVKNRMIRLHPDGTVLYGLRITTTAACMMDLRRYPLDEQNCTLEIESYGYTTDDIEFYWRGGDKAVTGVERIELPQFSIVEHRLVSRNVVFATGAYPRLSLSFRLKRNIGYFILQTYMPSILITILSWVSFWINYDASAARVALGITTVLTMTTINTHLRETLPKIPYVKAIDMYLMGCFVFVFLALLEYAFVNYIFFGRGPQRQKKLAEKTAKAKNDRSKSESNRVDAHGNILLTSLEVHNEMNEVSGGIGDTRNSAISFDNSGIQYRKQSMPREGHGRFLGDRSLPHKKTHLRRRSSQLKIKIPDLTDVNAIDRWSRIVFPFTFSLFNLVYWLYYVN
T2 sequence (O14764 25-452): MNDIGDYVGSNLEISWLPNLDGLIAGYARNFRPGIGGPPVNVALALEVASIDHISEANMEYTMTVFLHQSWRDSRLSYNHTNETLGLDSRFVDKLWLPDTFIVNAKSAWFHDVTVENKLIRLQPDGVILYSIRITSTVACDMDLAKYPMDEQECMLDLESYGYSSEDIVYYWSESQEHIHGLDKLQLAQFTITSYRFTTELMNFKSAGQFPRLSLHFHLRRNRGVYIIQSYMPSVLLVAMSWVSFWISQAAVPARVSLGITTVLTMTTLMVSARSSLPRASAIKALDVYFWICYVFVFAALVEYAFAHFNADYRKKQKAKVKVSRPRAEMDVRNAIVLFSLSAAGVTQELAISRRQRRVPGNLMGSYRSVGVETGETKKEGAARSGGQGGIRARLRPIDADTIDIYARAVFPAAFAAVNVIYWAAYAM
For experiment [4], the target named is T3, α1β1γ2 GABAA receptor (Homo sapiens, UniProt P14867+P18505+P18507).
T3 construct: expressed in transfected cells
The experiment is described as follows: FLIPR modulation of GABAA receptor subtype in expressing cells. The format is cell-based. The following applies: cells exposed to GABA plus compound, — = value not measurable. The protocol:
(§1) Cells expressing the indicated GABAA receptor subtype were exposed to gamma-aminobutyric acid in the presence of varying concentrations of either CV-10155 or SPNC-019, calcium flux was measured using a fluorometric imaging plate reader (FLIPR), and EC50 values for compounds were determined.

The target in experiment [5] is T1, α1β2γ2 GABAA receptor. The experiment is described as above. The following applies: cells exposed to GABA plus compound, — = value not measurable. The format is cell-based. On the procedure: as §1
Experiment [6] concerns the target T4, α1β3γ2 GABAA receptor (Homo sapiens, UniProt P14867+P18507+P28472).
T4 construct: expressed in transfected cells
The experiment is described as above. The following applies: cells exposed to GABA plus compound, — = value not measurable. The class given is cell-based. On the procedure: as §1

Experiment [7] has as its target T5, α2β1γ2 GABAA receptor (Homo sapiens, UniProt P18505+P18507+P47869).
T5 construct: expressed in transfected cells
The experiment is described as above. The format is cell-based. The following applies: cells exposed to GABA plus compound, — = value not measurable. On the procedure:
as §1

For experiment [8], the target named is T6, α2β2γ2 GABAA receptor (Homo sapiens, UniProt P18507+P47869+P47870).
T6 construct: expressed in transfected cells
The description is as above. The class given is cell-based. The following applies: cells exposed to GABA plus compound, — = value not measurable. On the procedure: as §1

Experiment [9] concerns the target T7, α2β3γ2 GABAA receptor (Homo sapiens, UniProt P18507+P28472+P47869).
T7 construct: expressed in transfected cells
The description is as above. The class given is cell-based. The note with it: cells exposed to GABA plus compound, — = value not measurable. On the procedure: as §1

Experiment [10] deals with T8, α3β1γ2 GABAA receptor (Homo sapiens, UniProt P18505+P18507+P34903).
T8 construct: expressed in transfected cells
The experiment is described as above. The format is cell-based. The note with it: cells exposed to GABA plus compound, — = value not measurable. The protocol: as §1

Experiment [11] deals with T9, α3β2γ2 GABAA receptor (Homo sapiens, UniProt P18507+P34903+P47870).
T9 construct: expressed in transfected cells
The description is as above. The class given is cell-based. The following applies: cells exposed to GABA plus compound, — = value not measurable. The protocol:
as §1

The target of experiment [12] is T10, α3β3γ2 GABAA receptor (Homo sapiens, UniProt P18507+P28472+P34903).
T10 construct: expressed in transfected cells
The description is as above. The class given is cell-based. The following applies: cells exposed to GABA plus compound, — = value not measurable. On the procedure:
as §1

Experiment [13] addresses T11, α4β1γ2 GABAA receptor (Homo sapiens, UniProt P18505+P18507+P48169).
T11 construct: expressed in transfected cells
Described as above. The following applies: cells exposed to GABA plus compound, — = value not measurable. The class given is cell-based. On the procedure: as §1

Experiment [14] deals with T12, α4β3γ2 GABAA receptor (Homo sapiens, UniProt P18507+P28472+P48169).
T12 construct: expressed in transfected cells
T12 sequence (P48169 36-554): as the sequence (P48169 36-554) above
T12 sequence (P28472 26-473): as the sequence (P28472 26-473) above
T12 sequence (P18507 40-475): as the sequence (P18507 40-475) above
The description is as above. The format is cell-based. The following applies: cells exposed to GABA plus compound, — = value not measurable. On the procedure:
as §1

Experiment [15] concerns the target T13, α5β1γ2 GABAA receptor (Homo sapiens, UniProt P18505+P18507+P31644).
T13 construct: expressed in transfected cells
The experiment is described as above. The note with it: cells exposed to GABA plus compound, — = value not measurable. The class given is cell-based. On the procedure:
as §1

Experiment [16] concerns the target T14, α5β2γ2 GABAA receptor (Homo sapiens, UniProt P18507+P31644+P47870).
T14 construct: expressed in transfected cells
The experiment is described as above. The format is cell-based. The note with it: cells exposed to GABA plus compound, — = value not measurable. On the procedure: as §1

Experiment [17] deals with T15, α5β3γ2 GABAA receptor (Homo sapiens, UniProt P18507+P28472+P31644).
T15 construct: expressed in transfected cells
T15 sequence (P31644 32-462): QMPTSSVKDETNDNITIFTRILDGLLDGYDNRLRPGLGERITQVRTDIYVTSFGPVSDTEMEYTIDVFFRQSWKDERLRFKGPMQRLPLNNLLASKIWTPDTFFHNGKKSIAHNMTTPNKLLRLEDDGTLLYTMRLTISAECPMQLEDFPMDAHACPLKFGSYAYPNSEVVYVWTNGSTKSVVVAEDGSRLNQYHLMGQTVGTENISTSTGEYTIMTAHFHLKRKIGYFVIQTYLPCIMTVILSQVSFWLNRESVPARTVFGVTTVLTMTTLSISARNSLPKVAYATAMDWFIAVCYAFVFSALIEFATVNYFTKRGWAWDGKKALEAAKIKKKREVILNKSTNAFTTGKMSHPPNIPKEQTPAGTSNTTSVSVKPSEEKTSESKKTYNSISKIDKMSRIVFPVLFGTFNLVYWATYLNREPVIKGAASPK
T15 sequence (P28472 26-473): as the sequence (P28472 26-473) above
T15 sequence (P18507 40-475): as the sequence (P18507 40-475) above
Described as above. The note with it: cells exposed to GABA plus compound, — = value not measurable. The class given is cell-based. The protocol: as §1

In experiment [18] the target is T16, α6β1γ2 GABAA receptor (Homo sapiens, UniProt P18505+P18507+Q16445).
T16 construct: expressed in transfected cells
The experiment is described as above. The class given is cell-based. The following applies: cells exposed to GABA plus compound, — = value not measurable. On the procedure: as §1

The target of experiment [19] is T17, α6β2γ2 GABAA receptor (Homo sapiens, UniProt P18507+P47870+Q16445).
T17 construct: expressed in transfected cells
The description is as above. The format is cell-based. The note with it: cells exposed to GABA plus compound, — = value not measurable. The protocol: as §1

In experiment [20] the target is T18, α6β3γ2 GABAA receptor (Homo sapiens, UniProt P18507+P28472+Q16445).
T18 construct: expressed in transfected cells
T18 sequence (Q16445 20-453): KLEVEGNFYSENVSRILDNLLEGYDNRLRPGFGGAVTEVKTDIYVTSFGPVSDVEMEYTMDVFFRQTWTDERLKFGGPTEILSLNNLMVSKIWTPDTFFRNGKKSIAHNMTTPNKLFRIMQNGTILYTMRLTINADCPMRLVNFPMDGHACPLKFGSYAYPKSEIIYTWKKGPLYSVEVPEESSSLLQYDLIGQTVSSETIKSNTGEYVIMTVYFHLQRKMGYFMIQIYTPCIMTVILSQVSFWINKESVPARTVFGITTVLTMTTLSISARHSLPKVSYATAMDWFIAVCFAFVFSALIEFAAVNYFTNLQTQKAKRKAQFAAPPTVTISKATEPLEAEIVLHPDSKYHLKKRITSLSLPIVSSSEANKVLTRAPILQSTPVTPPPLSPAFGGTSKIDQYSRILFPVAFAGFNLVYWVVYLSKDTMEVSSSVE
T18 sequence (P28472 26-473): as the sequence (P28472 26-473) above
T18 sequence (P18507 40-475): as the sequence (P18507 40-475) above
The experiment is described as above. The class given is cell-based. The following applies: cells exposed to GABA plus compound, — = value not measurable. On the procedure:
as §1

Experiment [21] relates to GABAA receptor subtypes. In words: FLIPR panel of 18 GABAA receptor subtypes, overall statement. The note with it: 18 subtypes. The format is cell-based. On the procedure:
as §1
The only structural difference between CV-10155 and SPNC-019 is the stereochemical configuration of the hydroxyl and methyl groups attached to the carbon atom at position 3 of the steroid core. […] The results further indicate that the isomeric purity of neurosteroid compositions greatly impacts the utility of such compositions as therapeutic agents.

The target in experiment [22] is T2, α4β3δ GABAA receptor. The experiment is described as follows: FLIPR modulation of GABAA receptor subtype in expressing cells. The format is cell-based. Set-up: expressed in transfected cells. The protocol:
as §1

T14 sequence (P31644 32-462): as the sequence (P31644 32-462) above
T14 sequence (P47870 25-512 limits assumed): as the sequence (P47870 25-512 limits assumed) above
T14 sequence (P18507 40-475): as the sequence (P18507 40-475) above
T11 sequence (P48169 36-554): as the sequence (P48169 36-554) above
T11 sequence (P18505 26-474): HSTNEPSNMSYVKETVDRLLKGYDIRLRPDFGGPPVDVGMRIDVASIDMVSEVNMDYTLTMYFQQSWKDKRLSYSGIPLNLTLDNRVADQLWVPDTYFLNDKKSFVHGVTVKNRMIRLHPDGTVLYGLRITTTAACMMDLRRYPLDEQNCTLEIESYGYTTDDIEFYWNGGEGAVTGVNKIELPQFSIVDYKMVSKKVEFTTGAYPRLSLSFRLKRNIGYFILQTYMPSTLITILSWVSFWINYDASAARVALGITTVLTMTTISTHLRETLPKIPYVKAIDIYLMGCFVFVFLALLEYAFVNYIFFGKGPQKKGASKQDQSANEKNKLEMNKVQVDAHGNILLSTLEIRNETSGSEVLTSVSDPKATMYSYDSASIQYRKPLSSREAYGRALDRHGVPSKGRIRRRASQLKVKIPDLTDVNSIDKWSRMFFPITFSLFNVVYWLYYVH
T11 sequence (P18507 40-475): as the sequence (P18507 40-475) above
T13 sequence (P31644 32-462): as the sequence (P31644 32-462) above
T13 sequence (P18505 26-474): as the sequence (P18505 26-474) above
T13 sequence (P18507 40-475): as the sequence (P18507 40-475) above
T4 sequence (P14867 28-456): as the sequence (P14867 28-456) above
T4 sequence (P28472 26-473): as the sequence (P28472 26-473) above
T4 sequence (P18507 40-475): as the sequence (P18507 40-475) above

Turning to `C[C@@]1(O)CC[C@@]2(C)[C@H](CC[C@@H]3[C@@H]2CC[C@]2(C)[C@@H](C(=O)Cn4cc(C#N)cn4)CC[C@@H]32)C1` [Compound 10], the IC50 (in general, the midpoint of a concentration-inhibition curve) in [1] was less than 10 nM.

For `C[C@@]1(O)CC[C@@]2(C)[C@@H](CC[C@@H]3[C@@H]2CC[C@]2(C)[C@@H](C(=O)Cn4ccc(C#N)n4)CC[C@@H]32)C1` [Compound 121], the IC50 in experiment [1] was 10 to 50 nM. Further, in experiment [2], the “efficacy: relative potentiation of GABA-mediated conductance, α1β2γ2” value is more than 500%. Besides, the “efficacy: relative potentiation of GABA-mediated conductance, α4β3δ” value in experiment [3] is on record as more than 500%.

For the compound `C[C@@]1(O)CC[C@@]2(C)[C@@H](CC[C@@H]3[C@@H]2CC[C@]2(C)[C@@H](C(=O)Cn4cc(C#N)cn4)CC[C@@H]32)C1` [CV-10155], the EC50 (usually the concentration that produces a half-maximal response) in experiment [4] stood at 521 nM; in experiment [5] it was 839 nM; in [6], 520 nM; in experiment [7] it was 253 nM; in experiment [8], 213 nM; in experiment [9], 296 nM. In addition, the EC50 in [10] came out at 946 nM; in experiment [11], 1820 nM; in experiment [12] it was 273 nM; in [13], 204 nM; in experiment [14] it was 1330 nM; in experiment [15] it was 762 nM. For the same compound, the EC50 in experiment [16] came out at 359 nM; in [17] it was 1300 nM; in experiment [18], 359 nM; in experiment [19] it was 1100 nM; in experiment [20] it was 245 nM; in experiment [22] (FLIPR, cells exposed to GABA plus compound, — = value not measurable), 106 nM. The “modulating activity across the GABAA receptor subtypes tested” value in [21] is listed as “some level of positive allosteric modulating activity in all of the GABAA receptor subtypes tested”. In addition, the “activity on α4β3δ compared with α1β2γ2 GABAA receptors, in words” value in [22] (data of Example 1) is listed as “substantially more active on α4β3δ GABAA receptors than on α1β2γ2 GABAA receptors”. In addition, the “EC50 for α4β3δ receptors lower than for α1β2γ2 receptors” value in experiment [22] (isomerically pure composition, α4β3δ versus α1β2γ2) is listed as “at least 5 fold”.

For the compound `C[C@]1(O)CC[C@@]2(C)[C@@H](CC[C@@H]3[C@@H]2CC[C@]2(C)[C@@H](C(=O)Cn4cc(C#N)cn4)CC[C@@H]32)C1` [SPNC-019, reference compound], the values for the EC50 in experiment [16], in experiment [17] and in [20] were 1200 nM, 1810 nM and 1770 nM, respectively. Besides, the “modulating activity across the GABAA receptor subtypes tested” value in [21] is “no modulating activity in 15 of the 18 GABAA receptor subtypes tested”.
